Test results from PubChem BioAssay (NCI).
Where “and” joins values, the source holds several entries; their conditions need not be identical. Equal values may be shown once.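 How tested: cells in 96-well plates exposed to compound for 48 hours at five concentrations. Abbreviation: GI50, concentration required for 50% inhibition of growth. At the TGI there is no net growth.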

Columns and labels:
Assay in all cases: NCI tumour cell line growth inhibition, 48 h
[1] = system: HCT-116 colon
[2] = system: HL-60(TB) leukemia
[3] = system: HOP-62 NSCLC
[4] = system: HS 578T breast
[5] = system: LOX IMVI melanoma
[6] = system: NCI-H460 lung
[7] = system: OVCAR-8 ovarian
[8] = system: SK-MEL-28 melanoma
[9] = system: SK-MEL-5 melanoma
[10] = system: SR leukemia

`Cc1ccc(F)cc1NC(=O)c1cc(Cl)ccc1Nc1ccccc1` gave a GI50 [1] greater than 100 µM, a TGI [1] greater than 100 µM and a GI50 [2] greater than 100 µM. It also gave a TGI [2] greater than 100 µM, a GI50 [3] of 79 µM and a TGI [3] greater than 100 µM. It also gave a GI50 [4] of 36.1 µM, a TGI [4] greater than 100 µM and a GI50 [5] greater than 100 µM. The TGI [5] was greater than 100 µM, the GI50 [6] was greater than 100 µM and the TGI [6] was greater than 100 µM. The GI50 [7] was 58.8 µM, the TGI [7] was greater than 100 µM and the GI50 [8] was greater than 100 µM. The TGI [8] was greater than 100 µM, the GI50 [9] was greater than 100 µM and the TGI [9] was greater than 100 µM. The GI50 [10] was greater than 100 µM and the TGI [10] was greater than 100 µM.

`N/C(=N\c1nc2ccccc2s1)NC(=O)Nc1cccc2ccccc12` gave a GI50 [2] of 0.283 µM, a TGI [2] of 0.968 µM and a GI50 [3] of 0.406 µM. The GI50 [4] was 0.302 µM, the TGI [4] was 5.41 µM and the GI50 [5] was 0.825 µM. It also gave a TGI [5] greater than 100 µM, a GI50 [7] of 0.521 µM and a TGI [7] greater than 100 µM. For the same compound, the GI50 [8] was 12.9 µM, the TGI [8] was greater than 100 µM and the GI50 [9] was 0.505 µM. For the same compound, the TGI [9] was greater than 100 µM, the GI50 [10] was 0.0591 µM and the TGI [10] was greater than 100 µM.

`C=C(C)[C@@H]1CC[C@]2(C(=O)NCCNCCNCCN)CC[C@]3(C)[C@H](CC[C@@H]4[C@@]5(C)CCC(=O)C(C)(C)[C@@H]5CC[C@]43C)[C@@H]12` gave a GI50 [1] of 6.65 µM, a TGI [1] of 14.9 µM and a GI50 [2] of 8.88 µM. For the same compound, the TGI [2] was 19 µM, the GI50 [3] was 7.91 µM and the TGI [3] was 16.6 µM. For the same compound, the GI50 [4] was 8.3 µM, the TGI [4] was 19.2 µM and the GI50 [5] was 8.72 µM. The TGI [5] was 16.6 µM, the GI50 [6] was 9.4 µM and the TGI [6] was 18.1 µM. It also gave a GI50 [7] of 8.41 µM, a TGI [7] of 16.2 µM and a GI50 [8] of 8.5 µM. The TGI [8] was 17 µM, the GI50 [9] was 6.99 µM and the TGI [9] was 13.5 µM. For the same compound, the GI50 [10] was 5.91 µM and the TGI [10] was 20.1 µM.

Compound `Cc1ccc(Oc2nc3ccccc3cc2-c2nnc(Cn3c(COc4ccccc4)nc4ccccc43)o2)cc1` has a GI50 [1] of 0.431 µM, a TGI [1] of 1.64 µM and a GI50 [2] of 2.85 µM. It also gave a TGI [2] of 7.88 µM, a GI50 [3] of 2.98 µM and a TGI [3] of 13 µM. For the same compound, the GI50 [4] was 4.39 µM, the TGI [4] was 33.8 µM and the GI50 [5] was 1.59 µM. The TGI [5] was 4.32 µM, the GI50 [6] was 10.4 µM and the TGI [6] was 24.4 µM. For the same compound, the GI50 [7] was 2.12 µM, the TGI [7] was 7.52 µM and the GI50 [9] was 1.9 µM. For the same compound, the TGI [9] was 3.97 µM, the GI50 [10] was 0.734 µM and the TGI [10] was 8.53 µM.

In the case of `C[C@@H]1COC(Nc2ccc3ncnc(Nc4ccc(OCc5nccs5)c(Cl)c4)c3c2)=N1`, the GI50 [1] is reported as 3.94 µM and 4.75 µM, the TGI [1] is reported as > 10 µM and 19 µM and the GI50 [2] is reported as 3.7 µM and 4.2 µM. For the same compound, the TGI [2] was greater than 100 µM, the GI50 [3] was 6.8 µM and 7.18 µM and the TGI [3] was > 10 µM and 20.7 µM. The GI50 [4] was 5.23 µM and 5.24 µM, the TGI [4] was > 10 µM and 48.9 µM and the GI50 [5] was 3.73 µM and 4.31 µM. The TGI [5] was > 10 µM and 17 µM, the GI50 [6] was 8.17 µM and 8.76 µM and the TGI [6] was > 10 µM and 26.5 µM. The GI50 [7] was 2.97 µM and 2.65 µM, the TGI [7] was > 10 µM and 16.8 µM and the GI50 [8] was 4.46 µM and 5.45 µM. The TGI [8] was > 10 µM and 18.9 µM, the GI50 [9] was 2.21 µM and 2.98 µM and the TGI [9] was 6.42 µM and 10.6 µM. The GI50 [10] was 6.79 µM and 3.97 µM and the TGI [10] was > 10 µM and 21.9 µM.

`Cc1cc2nc3c4cccc(O)c4n(CCN(C)C)c3nc2cc1C` showed a GI50 [1] of 1.49 µM, a TGI [1] of 7.97 µM and a GI50 [2] of 1.57 µM. For the same compound, the TGI [2] was 4.13 µM, the GI50 [3] was 1.88 µM and the TGI [3] was 7.53 µM. For the same compound, the GI50 [4] was 3.32 µM, the TGI [4] was 31.8 µM and the GI50 [5] was 1.24 µM. It also gave a TGI [5] of 2.6 µM, a GI50 [6] of 0.818 µM and a TGI [6] of 6.13 µM. It also gave a GI50 [7] of 1.83 µM, a TGI [7] of 10.3 µM and a GI50 [8] of 1.78 µM. The TGI [8] was 3.34 µM, the GI50 [9] was 1.67 µM and the TGI [9] was 3.08 µM. The GI50 [10] was 0.767 µM and the TGI [10] was 7.03 µM.

For `COc1cc2ncn(-c3cc(OCc4ccccc4S(C)(=O)=O)c(C#N)s3)c2cc1OC`, the GI50 [1] was greater than 25 µM, the TGI [1] was greater than 25 µM and the GI50 [2] was greater than 25 µM. The TGI [2] was greater than 25 µM, the GI50 [3] was greater than 10.8 µM and the TGI [3] was greater than 20.8 µM. For the same compound, the GI50 [4] was greater than 17.9 µM, the TGI [4] was greater than 25 µM and the GI50 [5] was greater than 25 µM. It also gave a TGI [5] greater than 25 µM, a GI50 [6] greater than 25 µM and a TGI [6] greater than 25 µM. For the same compound, the GI50 [7] was greater than 23.1 µM, the TGI [7] was greater than 25 µM and the GI50 [8] was greater than 25 µM. For the same compound, the TGI [8] was greater than 25 µM, the GI50 [9] was greater than 25 µM and the TGI [9] was greater than 25 µM. For the same compound, the GI50 [10] was greater than 25 µM and the TGI [10] was greater than 25 µM.

For `COc1ccc(-c2nc3sc4c(c3c(=O)[nH]2)CCCC4)c2ccccc12`, the GI50 [1] was 0.371 µM, the GI50 [2] was 0.301 µM and the TGI [2] was 2.04 µM. It also gave a GI50 [3] of 0.629 µM, a TGI [4] of 0.093 µM and a TGI [5] greater than 100 µM. The GI50 [6] was 0.381 µM, the GI50 [7] was 0.474 µM and 0.0475 µM and the TGI [7] was greater than 100 µM. It also gave a GI50 [8] of 0.468 µM, a TGI [9] of 5.52 µM and a GI50 [10] of 0.418 µM.

`Cc1cc(C)c2c(N)c3cccc(C)c3nc2n1` gave a GI50 [1] of 0.667 µM, a TGI [1] of 3.85 µM and a GI50 [2] of 3.67 µM. The TGI [2] was 16.4 µM, the GI50 [3] was 1.81 µM and the TGI [3] was 5.03 µM. The GI50 [4] was 3.25 µM, the TGI [4] was 25.1 µM and the GI50 [5] was 1.7 µM. The TGI [5] was 4.62 µM, the GI50 [6] was 1.4 µM and the TGI [6] was 4.22 µM. It also gave a GI50 [7] of 1.55 µM, a TGI [7] of 14.8 µM and a GI50 [8] of 3.86 µM. The TGI [8] was 15.9 µM, the GI50 [9] was 1.44 µM and the TGI [9] was 2.74 µM. The GI50 [10] was 0.703 µM and the TGI [10] was 3.94 µM.

Work on `COc1ccc2c(c1)[C@@]1(C)CCC3c4ccc(O)cc4CCC3C1C2` (stereo not given in full) yielded a GI50 [1] of 14.4 µM, a TGI [1] of 27.5 µM and a GI50 [2] of 18.1 µM. It also gave a TGI [2] of 39.1 µM, a GI50 [3] of 22.5 µM and a TGI [3] of 37.2 µM. It also gave a GI50 [4] of 19.4 µM, a TGI [4] of 39.3 µM and a GI50 [5] of 11 µM. For the same compound, the TGI [5] was 24.2 µM, the GI50 [6] was 9.02 µM and the TGI [6] was 23.2 µM. It also gave a GI50 [7] of 17.1 µM, a TGI [7] of 38.8 µM and a GI50 [8] of 15.2 µM. The TGI [8] was 30.3 µM, the GI50 [9] was 17 µM and the TGI [9] was 33.1 µM. The GI50 [10] was 16.3 µM and the TGI [10] was greater than 100 µM.

In the case of `O=C(NC1(C(=O)O)CC1c1ccccc1)c1ccccc1` (stereo not given), the TGI [1] is reported as greater than 100 µM, the TGI [2] is reported as greater than 100 µM and the TGI [3] is reported as greater than 100 µM. The TGI [4] was greater than 100 µM, the TGI [5] was greater than 100 µM and the TGI [6] was greater than 100 µM. It also gave a TGI [7] greater than 100 µM, a TGI [8] greater than 100 µM and a TGI [10] greater than 100 µM.

`NC1=NC(c2ccc(F)cc2)C2=C(N1)c1ccc3ccccc3c1OCC2` (stereo not given) was tested, and the GI50 [2] was greater than 100 µM, the TGI [2] was greater than 100 µM and the GI50 [3] was 23.5 µM. For the same compound, the TGI [3] was greater than 100 µM, the GI50 [4] was 11.4 µM and the TGI [4] was greater than 100 µM. For the same compound, the GI50 [5] was greater than 100 µM, the TGI [5] was greater than 100 µM and the GI50 [6] was 6.96 µM. It also gave a TGI [6] greater than 100 µM, a GI50 [7] of 14.5 µM and a TGI [7] greater than 100 µM. The GI50 [8] was 18.6 µM, the TGI [8] was greater than 100 µM and the GI50 [9] was 5.01 µM. It also gave a TGI [9] greater than 100 µM, a GI50 [10] of 2.37 µM and a TGI [10] greater than 100 µM.

`O=[N+]([O-])c1cccc(-c2cc(-c3cc(Br)ccc3O)[nH]n2)c1` gave a GI50 [1] of 1.46 µM, a TGI [1] of 2.86 µM and a GI50 [2] of 1.15 µM. It also gave a TGI [2] of 3.45 µM, a GI50 [4] of 2.15 µM and a TGI [4] of 9.29 µM. It also gave a GI50 [5] of 2.73 µM, a TGI [5] of 8.62 µM and a GI50 [6] of 1.9 µM. For the same compound, the TGI [6] was 10.4 µM, the GI50 [7] was 2.89 µM and the TGI [7] was 10.5 µM. For the same compound, the GI50 [8] was 2.88 µM, the TGI [8] was 10.5 µM and the GI50 [9] was 1.61 µM. The TGI [9] was 3.35 µM, the GI50 [10] was 1.66 µM and the TGI [10] was 4.8 µM.
